Data on five compounds can be found in US20260234211A1, “POLYPEPTIDE HAVING MODIFIED STRUCTURE AND USE THEREOF” (Guangdong Raynovent Biotech Co., Ltd., priority 2023, published 2026).

The target in one data set is T1, GLP-1R (Homo sapiens, UniProt P43220).
T1 construct: host or cells: HEK293
The experiment in a line: In vitro GLP-1R agonistic activity test (cAMP, HEK293 cell line). It counts as cell-based. The protocol:
The cell lines were constructed by Pharmaron Inc. See details in the table below.
The test compounds were diluted at a 5-fold dilution factor in 10 points, starting from an initial concentration of 200 nM.
1) The cell lines were cultured respectively in complete medium at 37° C. and 5% CO2.
1) Eu-cAMP tracer was freeze-thawed and diluted 50 fold with detection buffer; and Ulight-anti-cAMP was freeze-thawed and diluted 150 fold with detection buffer.
3) 10 μL of Eu-cAMP tracer was added and then 10 μL of Uligh-anti-cAMP was added into experimental wells respectively.
4) The reaction plate was centrifuged at 200 g at room temperature for 30 s and left for stand at 25° C. for 1 h.

A short description of data set [1]: Metabolic stability in human kidney S9. It counts as in vitro ADME. To be noted: human, s9. The protocol:
The metabolic stability of the compounds in human kidney was evaluated to determine whether the drugs would be degraded by metabolic enzymes in the kidney to affect the efficacies and pharmacokinetics. 1. Relevant solutions were formulated. 2. a) With cofactors (NADPH & UDPGA): NADPH and UDPGA were added during the incubation. […] H2O was added into the culture solution. The final concentration of KS9 Fractions was 1 mg/mL. The mixture was pre-heated at 37° C. for 10 min. […] In this study, 7-hydroxy-coumarin and Raloxifene were used as the positive control. The final concentration of the positive control compounds was 0.2 μM, and the final concentration of the test compound was 1 μM. The culture solution was incubated in water bath at 37° C. 4. At 0.5, 5, 15, 30 and 60 min, volume aliquots were taken from the reaction solution and the reaction was stopped by adding acetonitrile. The samples were centrifuged for 30 min. The supernatant was taken and mixed with ultrapure water for subsequent LC-MS/MS analysis. 5. Data analysis: All calculation was conducted using Microsoft Excel. Peak areas were determined and slope values were calculated based on the extracted ion chromatograms.

Data set [2] is described as follows: Pharmacokinetic properties in Cynomolgus macaques. To be noted: cynomolgus monkey, in vivo, male cynomolgus macaques, plasma. As for the experimental part:
To test the pharmacokinetic profiles of the compounds in Cynomolgus macaques.
Non-juvenile male cynomolgus macaques were used for experiment, 3 cynomolgus macaques for each compound. Whole blood was collected at time points of 1 h, 2 h, 4 h, 8 h, 16 h, 24 h, 48 h, 72 h, 120 h, 168 h and 240 h after administration, to prepare plasma. The drug concentration was analyzed by LC-MS/MS method, and the pharmacokinetic parameters were calculated using Phoenix WinNonlin software.

Setting [3] is: cAMP, HEK293 cells expressing GLP-1R, read-out: GLP-1 EC50.

Molecules are shown by their SMILES. Like-named read-outs stand apart in the source and are kept apart here. Numbered stars: 1 amine (or outer) side, 2 acyl side, 3 side chain; on linkers, the order of the positions; unused ones are H or OH. Bridge positions count the residues as written; N and C are the ends. Square brackets hold non-standard residues; d marks the D form. Peptide text beside a SMILES is read from it. X1 = O=C(O)CCCCCCCCCCCCCCCCCCC(=O)N[C@@H](CCC(=O)NCCOCCOCC(=O)NCCCC[C@H](N[*:2])C(=O)[*:1])C(=O)O; αMeL = CC(C)C[C@](C)(N)C(=O)O; Aib = CC(C)(N)C(=O)O

T1 sequence (P43220 24-463, species assumed): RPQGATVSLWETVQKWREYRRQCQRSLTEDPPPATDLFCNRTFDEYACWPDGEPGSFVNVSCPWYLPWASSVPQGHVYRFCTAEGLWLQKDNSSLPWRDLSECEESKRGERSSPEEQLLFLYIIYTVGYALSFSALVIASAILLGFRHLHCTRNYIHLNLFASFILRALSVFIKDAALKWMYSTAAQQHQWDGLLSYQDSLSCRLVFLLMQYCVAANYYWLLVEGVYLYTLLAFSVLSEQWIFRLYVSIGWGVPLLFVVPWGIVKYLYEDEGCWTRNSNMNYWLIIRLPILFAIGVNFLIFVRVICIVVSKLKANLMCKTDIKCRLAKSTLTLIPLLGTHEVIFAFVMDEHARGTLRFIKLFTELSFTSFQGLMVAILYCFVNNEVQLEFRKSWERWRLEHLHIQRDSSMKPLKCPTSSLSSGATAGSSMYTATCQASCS

Regarding `CC[C@H](C)[C@H](NC(=O)[C@H](Cc1ccccc1)NC(=O)[C@@H]1CCC(=O)N[C@@H](CCCCNC(=O)COCCOCCNC(=O)CC[C@H](NC(=O)CCCCCCCCCCCCCCCCCCC(=O)O)C(=O)O)C(=O)NCCCC[C@H](NC(=O)[C@H](CCCCN)NC(=O)[C@H](CC(=O)O)NC(=O)[C@H](CC(C)C)NC(=O)[C@](C)(CC(C)C)NC(=O)[C@@H](NC(=O)[C@H](CO)NC(=O)[C@H](Cc2ccc(O)cc2)NC(=O)[C@H](CC(=O)O)NC(=O)[C@H](CO)NC(=O)[C@@H](NC(=O)[C@H](Cc2ccccc2)NC(=O)[C@@H](NC(=O)CNC(=O)[C@H](CCC(N)=O)NC(=O)C(C)(C)NC(=O)[C@@H](N)Cc2ccc(O)cc2)[C@@H](C)O)[C@@H](C)O)[C@@H](C)CC)C(=O)N[C@@H](C)C(=O)N[C@@H](CCC(N)=O)C(=O)NC(C)(C)C(=O)N1)C(=O)N[C@@H](CCC(=O)O)C(=O)N[C@@H](Cc1ccc(O)cc1)C(=O)N[C@@H](CC(C)C)C(=O)N[C@@H](CC(C)C)C(=O)N[C@@H](CCC(=O)O)C(=O)NCC(=O)NCC(=O)N1CCC[C@H]1C(=O)N[C@@H](CO)C(=O)N[C@@H](CO)C(=O)NCC(=O)N[C@@H](C)C(=O)N1CCC[C@H]1C(=O)N1CCC[C@H]1C(=O)N1CCC[C@H]1C(=O)N[C@@H](CO)C(N)=O` [Example 10, YAibQGT FTSDY SIα- MeLLD K^1KAQAib ^1EFIEY LLEGG PSSGA PPPS-NH2 (SEQ ID NO: 16)] (H-Y[Aib]QGTFTSDYSI[αMeL]LDKKAQ[Aib]EFIEYLLEGGPSSGAPPPS-NH2; linker 17-21 via X1 (inferred); N-terminus assumed), the EC50 at GLP-1R (setting [3]) was 9 pM. Further, in data set [1], the half-life at 1 μM was greater than 3.08 h and the microsomal CLint at 1 μM is less than 3.75 µL/min/mg.
Take `CC[C@H](C)[C@@H]1NC(=O)[C@H](Cc2ccccc2)NC(=O)[C@@H](NC(=O)C(C)(C)NC(=O)[C@H](CCC(N)=O)NC(=O)[C@H](C)NC(=O)[C@H](CCCCN)NC(=O)[C@H](CCCCN)NC(=O)[C@H](CC(=O)O)NC(=O)[C@H](CC(C)C)NC(=O)[C@](C)(CC(C)C)NC(=O)[C@@H](NC(=O)[C@H](CO)NC(=O)[C@H](Cc2ccc(O)cc2)NC(=O)[C@H](CC(=O)O)NC(=O)[C@H](CO)NC(=O)[C@@H](NC(=O)[C@H](Cc2ccccc2)NC(=O)[C@@H](NC(=O)CNC(=O)[C@H](CCC(N)=O)NC(=O)C(C)(C)NC(=O)[C@@H](N)Cc2ccc(O)cc2)[C@@H](C)O)[C@@H](C)O)[C@@H](C)CC)CCCCNC(=O)CN(C(=O)COCCOCCNC(=O)COCCOCCNC(=O)CC[C@H](NC(=O)CCCCCCCCCCCCCCCCCCC(=O)O)C(=O)O)CC(=O)NCCCC[C@@H](C(=O)NCC(=O)NCC(=O)N2CCC[C@H]2C(=O)N[C@@H](CO)C(=O)N[C@@H](CO)C(=O)NCC(=O)N[C@@H](C)C(=O)N2CCC[C@H]2C(=O)N2CCC[C@H]2C(=O)N2CCC[C@H]2C(=O)N[C@@H](CO)C(N)=O)NC(=O)[C@H](CC(C)C)NC(=O)[C@H](CC(C)C)NC(=O)[C@H](Cc2ccc(O)cc2)NC(=O)[C@H](CCC(=O)O)NC1=O` [Example 14, YAibQGT FTSDY SIα- MeLLD KKAQAib ^1KFIEY LLIKGG PSSGA PPPS-NH2 (SEQ ID NO: 20)]: on GLP-1R (setting [3]), the concentration giving a half-maximal response (EC50) turned out to be 1 pM.
Same read-out and setting: with `CC[C@H](C)[C@H](NC(=O)[C@H](Cc1ccccc1)NC(=O)[C@@H]1CCCCNC(=O)CN(C(=O)[C@@H](N)CCCCNC(=O)[C@@H](N)CCCCNC(=O)CC[C@H](NC(=O)CCCCCCCCCCCCCCCCCCC(=O)O)C(=O)O)CC(=O)NCCCC[C@H](NC(=O)[C@H](CCCCN)NC(=O)[C@H](CC(=O)O)NC(=O)[C@H](CC(C)C)NC(=O)[C@](C)(CC(C)C)NC(=O)[C@@H](NC(=O)[C@H](CO)NC(=O)[C@H](Cc2ccc(O)cc2)NC(=O)[C@H](CC(=O)O)NC(=O)[C@H](CO)NC(=O)[C@@H](NC(=O)[C@H](Cc2ccccc2)NC(=O)[C@@H](NC(=O)CNC(=O)[C@H](CCC(N)=O)NC(=O)C(C)(C)NC(=O)[C@@H](N)Cc2ccc(O)cc2)[C@@H](C)O)[C@@H](C)O)[C@@H](C)CC)C(=O)N[C@@H](C)C(=O)N[C@@H](CCC(N)=O)C(=O)NC(C)(C)C(=O)N1)C(=O)N[C@@H](CCC(=O)O)C(=O)N[C@@H](Cc1ccccc1)C(=O)N[C@@H](CC(C)C)C(=O)N[C@@H](CC(C)C)C(=O)N[C@@H](CCC(=O)O)C(=O)NCC(=O)NCC(=O)N1CCC[C@H]1C(=O)N[C@@H](CO)C(=O)N[C@@H](CO)C(=O)NCC(=O)N[C@@H](C)C(=O)N1CCC[C@H]1C(=O)N1CCC[C@H]1C(=O)N1CCC[C@H]1C(=O)N[C@@H](CO)C(N)=O` [Example 22, YAibQGT FTSDY SIα- MeLLD K^1KAQAib ^1KFIEF LLEGG PSSGA PPPS-NH2 (SEQ ID NO: 25)] the figure was 9 pM.
On GLP-1R, `CC[C@H](C)[C@H](NC(=O)[C@H](Cc1ccccc1)NC(=O)[C@H](C)NC(=O)C(C)(C)NC(=O)[C@H](CCC(N)=O)NC(=O)[C@H](C)NC(=O)[C@@H]1CCCCNC(=O)CN(C(=O)COCCOCCNC(=O)CC[C@H](NC(=O)CCCCCCCCCCCCCCCCCCC(=O)O)C(=O)O)CC(=O)NCCCC[C@H](NC(=O)[C@](C)(CC(C)C)NC(=O)[C@@H](NC(=O)[C@H](CO)NC(=O)[C@H](Cc2ccc(O)cc2)NC(=O)[C@H](CC(=O)O)NC(=O)[C@H](CO)NC(=O)[C@@H](NC(=O)[C@H](Cc2ccccc2)NC(=O)[C@@H](NC(=O)CNC(=O)[C@H](CCC(N)=O)NC(=O)C(C)(C)NC(=O)[C@@H](N)Cc2ccc(O)cc2)[C@@H](C)O)[C@@H](C)O)[C@@H](C)CC)C(=O)N[C@@H](CC(=O)O)C(=O)N[C@@H](CCCCN)C(=O)N1)C(=O)N[C@@H](CCC(=O)O)C(=O)N[C@@H](Cc1ccc(O)cc1)C(=O)N[C@@H](CC(C)C)C(=O)N[C@@H](CC(C)C)C(=O)N[C@@H](CCCCN)C(=O)NCC(=O)NCC(=O)N1CCC[C@H]1C(=O)N[C@@H](CO)C(=O)N[C@@H](CO)C(=O)NCC(=O)N[C@@H](C)C(=O)N1CCC[C@H]1C(=O)N1CCC[C@H]1C(=O)N1CCC[C@H]1C(=O)N[C@@H](CO)C(N)=O` [Example 38, YAibQGT FTSDY SIα- MeL^1KD K^1KAQAib AFIEY LLKGG PSSGA PPPS-NH2 (SEQ ID NO: 38)] showed an EC50 of 2 pM. In data set [2] (read-out: AUC0-240 h), the AUC(0-t) turned out to be 3.88 µM·h. Also, the AUC(0-inf) in data set [2] (read-out: AUCINF) turned out to be 4.41 µM·h. Besides, the Cmax in data set [2] (read-out: Cmax) is 33.9 nM. In addition, in data set [2] (read-out: T1/2 (converted)), the half-life is 74.9 h. In addition, the Tmax in data set [2] (read-out: Tmax) is 21.3 h.
Regarding `CC[C@H](C)[C@H](NC(=O)[C@H](Cc1ccccc1)NC(=O)[C@H](C)NC(=O)C(C)(C)NC(=O)[C@H](CCC(N)=O)NC(=O)[C@H](C)NC(=O)[C@@H]1CCCCNC(=O)CN(C(=O)COCCOCCNC(=O)[C@@H](N)CCCCNC(=O)CC[C@H](NC(=O)CCCCCCCCCCCCCCCCCCC(=O)O)C(=O)O)CC(=O)NCCCC[C@H](NC(=O)[C@](C)(CC(C)C)NC(=O)[C@@H](NC(=O)[C@H](CO)NC(=O)[C@H](Cc2ccc(O)cc2)NC(=O)[C@H](CC(=O)O)NC(=O)[C@H](CO)NC(=O)[C@@H](NC(=O)[C@H](Cc2ccccc2)NC(=O)[C@@H](NC(=O)CNC(=O)[C@H](CCC(N)=O)NC(=O)C(C)(C)NC(=O)[C@@H](N)Cc2ccc(O)cc2)[C@@H](C)O)[C@@H](C)O)[C@@H](C)CC)C(=O)N[C@@H](CC(=O)O)C(=O)N[C@@H](CCCCN)C(=O)N1)C(=O)N[C@@H](CCC(=O)O)C(=O)N[C@@H](Cc1ccc(O)cc1)C(=O)N[C@@H](CC(C)C)C(=O)N[C@@H](CC(C)C)C(=O)N[C@@H](CCCCN)C(=O)NCC(=O)NCC(=O)N1CCC[C@H]1C(=O)N[C@@H](CO)C(=O)N[C@@H](CO)C(=O)NCC(=O)N[C@@H](C)C(=O)N1CCC[C@H]1C(=O)N1CCC[C@H]1C(=O)N1CCC[C@H]1C(=O)N[C@@H](CO)C(N)=O` [Example 54, YAibQGT FTSDY SIα- MeL^1KD K^1KAQAib AFIEY LLKGG PSSGA PPPS-NH2 (SEQ ID NO: 38)], the EC50 at GLP-1R (setting [3]) is 2 pM.

One may read the EC50 as the concentration at which the effect is half-maximal. Usually microsomal CLint stands for the capacity of the preparation to metabolise the compound, expressed as a volume cleared per time. Higher therefore signals faster metabolism. Usually Cmax stands for the peak of the concentration-time curve. As usually defined, the Tmax is the time at which the peak concentration occurs.
